Assay results: PubChem BioAssay (NCI)
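Five compound concentrations were applied to cells in 96-well plates for 48 hours; endpoints were derived by simple linear interpolation of the resulting dose-response curve. TGI: concentration producing complete growth inhibition.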

Key:
Experiment in all cases: DTP human tumour cell line panel, 48 h
NCI-H522 lung = tested on: NCI-H522 lung
SF-268 CNS = tested on: SF-268 CNS
LXFL 529 NSCLC = tested on: LXFL 529 NSCLC
EKVX NSCLC = tested on: EKVX NSCLC
DMS 114 small cell lung = tested on: DMS 114 small cell lung
DLD-1 colon = tested on: DLD-1 colon
CCRF-CEM leukemia = tested on: CCRF-CEM leukemia
XF 498 CNS = tested on: XF 498 CNS
SNB-78 CNS = tested on: SNB-78 CNS
KM12 colon = tested on: KM12 colon
M19-MEL melanoma = tested on: M19-MEL melanoma
UACC-257 melanoma = tested on: UACC-257 melanoma
DMS 273 small cell lung = tested on: DMS 273 small cell lung
IGROV1 ovarian = tested on: IGROV1 ovarian
KM20L2 colon = tested on: KM20L2 colon
HOP-18 NSCLC = tested on: HOP-18 NSCLC
DU-145 prostate = tested on: DU-145 prostate
BT-549 breast = tested on: BT-549 breast

| Structure (SMILES) | TGI (NCI-H522 lung) | TGI (SF-268 CNS) | TGI (LXFL 529 NSCLC) | TGI (EKVX NSCLC) | TGI (DMS 114 small cell lung) | TGI (DLD-1 colon) | TGI (CCRF-CEM leukemia) | TGI (XF 498 CNS) | TGI (SNB-78 CNS) | TGI (KM12 colon) | TGI (M19-MEL melanoma) | TGI (UACC-257 melanoma) | TGI (DMS 273 small cell lung) | TGI (IGROV1 ovarian) | TGI (KM20L2 colon) | TGI (HOP-18 NSCLC) | TGI (DU-145 prostate) | TGI (BT-549 breast) |
| --- | --- | --- | --- | --- | --- | --- | --- | --- | --- | --- | --- | --- | --- | --- | --- | --- | --- | --- |
| O=S(OC12CC3CC(CC(C3)C1)C2)c1cc(Cl)cc(Cl)c1OCc1ccccc1 (stereo unspecified) | 37.1 µM | > 100 µM | > 100 µM | > 100 µM | > 100 µM | > 100 µM | > 100 µM | > 100 µM | > 100 µM | > 100 µM | > 100 µM | > 100 µM |  |  |  |  |  |  |
| O=C1C=C2SC3C[C@@]24CC1[N+]1=c2c4c(c(O)c4c2=C(C=N4)CC1)N3 | 2.99 µM | 2.9 µM |  | 4.8 µM | 2.85 µM | 5.12 µM | > 100 µM | 3.34 µM | 5.88 µM | 4.74 µM | 3.44 µM | 3.17 µM | 4.12 µM | 6.48 µM | 3.81 µM | 18.9 µM |  |  |
| CCCC(C)n1c(C)nc2c1C(=O)c1ccccc1C2=O (stereo unspecified) | 97 µM | > 100 µM | > 100 µM | > 100 µM |  | > 100 µM | > 100 µM | 50.1 µM | > 100 µM | > 100 µM | 29.1 µM | 63.1 µM | 30.8 µM | > 100 µM | > 100 µM |  |  |  |
| COP(=O)(OC)C(NC(=O)C(F)(F)F)(c1ccccc1)C(F)(F)F (stereo unspecified) | > 100 µM | > 100 µM |  | > 100 µM | > 100 µM | > 100 µM | > 100 µM | > 100 µM |  | > 100 µM | > 100 µM | > 100 µM | > 100 µM | > 100 µM | > 100 µM | > 100 µM |  |  |
| COc1ccc(/C=C/C(=O)c2cc(C(C)(C)C)c(O)c(C(C)(C)C)c2)cc1OC | 72.1 µM | > 67.7 µM |  | > 100 µM |  |  | 11.8 µM |  |  | > 59.4 µM |  | 23.3 µM |  | > 100 µM |  |  | > 70.3 µM | > 77.6 µM |
| O=C1C=CC(=C(c2ccc(O)cc2)c2ccc(O)cc2)C=C1 | 21.8 µM | 29.7 µM | 10.8 µM | 28.6 µM | 7.54 µM | 23.4 µM | 12.2 µM | 24.4 µM | 17.4 µM | 26.1 µM |  | 21.7 µM | 19.9 µM | 28 µM | 30.7 µM | 30.3 µM |  |  |
| CC(=O)OC(Cc1ccc2ccccc2n1)(C(F)(F)F)C(F)(F)F | 2.16 µM | 7.54 µM |  | 10.2 µM |  |  | 1.95 µM |  |  | 12.7 µM |  | 0.328 µM |  | 6.02 µM |  |  | 17.9 µM | 4.17 µM |
| COc1cc(C2=NNC(=O)c3ccccc3N2c2nc(-c3cccs3)nc3ccc(Br)cc23)cc(OC)c1OC | > 100 µM | 58.4 µM |  | 86.4 µM |  |  | > 100 µM |  |  | 30.5 µM |  | > 100 µM |  | > 100 µM |  |  | 87.9 µM | > 100 µM |
| O=c1oc2ccc([N+](=O)[O-])cc2c(Nc2ccc3c(c2)Sc2ccccc2O3)c1[N+](=O)[O-] | 33.8 µM | 61.6 µM |  | 68.8 µM |  |  | 50.4 µM |  |  | 49.8 µM |  | 69 µM |  | 54.9 µM |  |  | 99.5 µM | 64.3 µM |
| CC(=O)c1ccccc1NCC(=O)Nn1cnc2ccc(S(=O)(=O)Nc3ccccc3C(C)=O)cc2c1=O | > 100 µM | > 100 µM |  | > 100 µM |  |  | > 100 µM |  |  | > 100 µM |  | > 100 µM |  | > 100 µM |  |  | > 100 µM | > 100 µM |
| COC12CCCN1c1ccn(Cc3ccccc3)c(=O)c1C2=O (stereo unspecified) | > 100 µM | > 100 µM |  | > 100 µM |  |  | > 100 µM |  |  | > 100 µM |  | > 100 µM |  | > 100 µM |  |  | > 100 µM | > 100 µM |
| O=[N+]([O-])c1ccccc1S(=O)(=O)c1ccccc1 |  | > 100 µM | > 100 µM | > 100 µM | > 100 µM | > 100 µM | > 100 µM | > 100 µM |  | > 100 µM | > 100 µM | > 100 µM | > 100 µM | > 100 µM | > 100 µM | > 100 µM |  |  |
| O=C(c1ccccc1)n1cc(-c2ccccc2)c2c(=O)[nH]cnc21 | > 100 µM | > 100 µM |  | > 100 µM |  |  | > 100 µM |  |  | > 100 µM |  | > 100 µM |  | > 100 µM |  |  | > 100 µM | > 100 µM |
| CCCCCc1nnc(NS(=O)(=O)c2ccc(NC(=O)OCC(C)C)cc2)s1 | 79 µM | > 100 µM |  | 78.2 µM |  |  | 77.1 µM |  |  | > 100 µM |  | > 100 µM |  | 97.7 µM |  |  | > 100 µM | > 100 µM |
| COC(=O)[C@H]1NC(=O)CCSSC1(C)C | > 100 µM | > 100 µM |  | > 100 µM |  |  | > 100 µM |  |  | > 100 µM |  | > 100 µM |  | > 100 µM |  |  | > 100 µM | > 100 µM |
| Cc1ccc(NC(=O)C(Cc2c[nH]c3ccccc23)NC(=O)Oc2ccccc2)cc1C (stereo unspecified) | > 100 µM | > 100 µM |  | > 100 µM |  |  | > 100 µM |  |  | > 100 µM |  | > 100 µM |  | > 100 µM |  |  | > 100 µM | > 100 µM |
| C=C1c2nc3ccccc3n2C=C(c2ccc(C)cc2)N1c1ccc(C)cc1 | 56.7 µM | > 100 µM |  | > 100 µM |  |  | > 100 µM |  |  | > 82.2 µM |  | > 100 µM |  | > 100 µM |  |  | > 100 µM | > 100 µM |
| Cc1ccc2c(=O)c(C(=O)Nn3c(C)csc3=S)c[nH]c2n1 | > 100 µM | > 100 µM |  | > 100 µM |  |  | > 100 µM |  |  | > 100 µM |  | > 100 µM |  | > 100 µM |  |  | > 100 µM | > 100 µM |
| C=CCc1cc(-c2cc(CC=C)c(O)c(CN(CC)CC)c2)cc(CN(CC)CC)c1O | 70.8 µM | > 100 µM | > 100 µM | > 100 µM | > 100 µM | > 100 µM | 79.1 µM |  | > 100 µM | > 100 µM | 43.8 µM | 68.5 µM | 82.5 µM | > 100 µM | 40 µM | > 100 µM | > 100 µM | > 100 µM |
| COc1cc2oc(=O)cc(C)c2cc1O | > 100 µM | > 100 µM |  | > 100 µM |  |  | > 100 µM |  |  | > 100 µM |  | > 100 µM |  | > 100 µM |  |  | > 100 µM | > 100 µM |
| COc1cc(CNc2cnc3cc(N)ccc3n2)cc(OC)c1OC | 74.5 µM | > 100 µM | > 100 µM | > 100 µM | 61 µM | > 100 µM | > 100 µM | > 100 µM |  | > 100 µM | > 100 µM | > 100 µM | 2.43 µM | > 100 µM | 37.7 µM | > 100 µM |  |  |
| O=C(CCCCCC(=O)N1CC(CCl)c2ccc([N+](=O)[O-])cc21)N1CC(CCl)c2ccc([N+](=O)[O-])cc21 (stereo unspecified) | > 100 µM | > 100 µM |  | > 100 µM |  |  | > 100 µM |  |  | > 100 µM |  | > 100 µM |  | > 100 µM |  |  | > 100 µM | > 100 µM |
| CCO[C@@]1(COCc2ccccc2)OC(=O)C[C@@H]1N1C(=O)OC[C@@H]1c1ccccc1 | > 100 µM | > 100 µM |  | > 100 µM |  |  | > 100 µM |  |  | > 100 µM |  | > 100 µM |  | > 100 µM |  |  | > 100 µM | > 100 µM |
